What is called ED50 is the midpoint of the dose-response relation.

Entries after “also recorded” stand apart in the source; their conditions may differ. Where two headings read alike, the source gives them in different places.

For test [1], the system named is mice. In words: Writhing Assay (PBQ-induced writhing, analgesic activity). The test is classed as in vivo, mouse (Charles River male albino). The conditions noted are these: for rank order of potency in the Writhing Assay: more potent compounds of the invention. From the text: The Writhing Assay is one of the most widely-used experimental procedures for measuring the analgesic activity of different narcotic and nonnarcotic analgesic agents, and involves the continuous, chemically-induced pain of visceral origin to an animal, such as a mouse or rat. [Gyires et al., Arch. int. Pharmacodyn, 267, 131-140 (1984); C. Vander Wende et al., Fed. Proc., 15, 494 (1956); Koster et al., Fed. Proc., 18, 412 (1959); and Witken et al., J. Pharmacol. exp. Ther., 133, 400-408 (1961).] Chemicals which may be used to induce this pain include phenylbenzoquinone (PBQ) and acetic acid. As a result of the chemical irritation to the animal, a characteristic stretching and writhing of the animal (dorsiflexion of the animal's back, extension of its hindlimbs and the strong contraction of its abdominal musculature) will generally occur. […] Drugs which reduce the number of writhes of the animal appear to restore the normal nociceptive threshold of the animal.
Charles River male albino mice, weighing 20 to 30 grams were used in this assay.
Thirty minutes after subcutaneous or intragastric administration to ten mice of either 10 mg or 30 mg per kilogram of body weight of a compound of the present invention ("test compound"), […] of body weight of a 0.025% w/v solution of PBQ was injected intraperitoneally into each mouse. Ten mice which were given saline in place of a test compound of the invention were used as a control group.
Five minutes later, each mouse was individually placed into a glass beaker for observation, and the number of writhes occurring during the following ten-minute period was counted.
A test compound was considered to have produced analgesia in a mouse if, in accordance with the conditions set forth above, and under the test criteria employed for this assay, after the administration of 10 or 30 mg per kilogram of body weight of a compound of the present invention to the mouse, the number of writhes elicited by a mouse injected with PBQ was equal to, or less than, one-half the median number of writhes recorded for the saline-treated control group of mice that day, as described by Taber in "Predictive Value of Analgesic Assays in Mice and Rats," Advances in Biochemical Psychopharmacology, 8, 191 (1974).
The results for the particular compounds of the present invention analyzed in this assay, and discussed in the examples identified below which correspond thereto, are presented in Table I below.
The standard initial screening doses of a test compound employed in this assay were 10 and/or […] of body weight for both routes of administration. If these initial screening doses of the test compound produced analgesia in seven of ten mice, then the effect of additional doses of the test compound on the writhing response was evaluated, and then the ED50 dose was generally calculated. (The slopes of the dose-response curves for all test compounds analyzed were compared as described by Tallarida and Murray, Manual of Pharmacologic Calculations, Page 11 (Springer Verlag, N.Y., 1981)).
In general terms: Writhing tests count abdominal constrictions after an irritant is injected.

The target in test [2] is T1, prostaglandin E2-induced contractions of segments of guinea pig ileum (Cavia porcellus, UniProt A0A286XHJ6).
T1 construct: The ileums were then quickly removed from the guinea pigs; from tissue; host or cells: guinea pig ileum segments (male albino guinea pigs)
T1 sequence (A0A286XHJ6 1-405): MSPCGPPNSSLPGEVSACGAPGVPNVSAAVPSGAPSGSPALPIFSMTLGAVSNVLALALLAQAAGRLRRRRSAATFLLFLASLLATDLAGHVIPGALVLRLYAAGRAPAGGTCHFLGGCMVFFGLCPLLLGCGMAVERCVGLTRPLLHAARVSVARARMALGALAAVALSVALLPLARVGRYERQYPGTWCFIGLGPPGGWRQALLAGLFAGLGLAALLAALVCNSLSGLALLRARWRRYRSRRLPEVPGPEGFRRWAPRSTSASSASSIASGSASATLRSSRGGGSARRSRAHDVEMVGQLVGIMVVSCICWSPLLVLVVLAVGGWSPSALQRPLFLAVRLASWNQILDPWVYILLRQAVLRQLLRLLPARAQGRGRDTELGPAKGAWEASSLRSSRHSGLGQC
In words: Prostaglandin (PGE) Antagonism Assay in guinea pig ileum. Also noted: key to PGE antagonism in guinea pig ileum, activity: Active: A concentration of test compound was determined to be "active" if it produced a dose ratio significantly greater than that obtained in a series of blank treatments. The note with it: for Kb: Schild plot, guinea pig ileum, 37° C., read-out: PGE antagonism in guinea pig ileum (pA2) (converted); for PGE antagonism in guinea pig ileum, activity: initial concentration of test compound. The protocol: In order to determine the effectiveness of several of the compounds of the present invention ("test compounds") as prostaglandin E2 antagonists,a prostaglandin antagonism assay was conducted, as described below, to determine the ability of these compounds to inhibit prostaglandin E2 -induced contractions of segments of guinea pig ileum.
Male albino guinea pigs weighing 200 to 500 grams were sacrificed by cervical dislocation.
The ileums were then quickly removed from the guinea pigs and placed in a modified Tyrode solution, a solution which is known to those of skill in the art, containing one-half of the usual amount of magnesium ions.
Segments of ileum about 2 cm long were then cut and mounted in a 10-mL tissue bath containing the modified Tyrode solution. The solution was maintained at 37° C. and aerated with a gaseous mixture of 95% oxygen and 5% carbon dioxide.
Submaximal contractions of the ileum segments were then generated by injecting prostaglandin E2 into the bath, and detected isotonically. Data for a control prostaglandin E2 dose response curve plotting concentration of prostaglandin E2 versus number of contractions generated was then obtained by experimentally adjusting the dose of the prostaglandin E2 being injected into the tissue bath, in a manner known by those of skill in the art.
Solutions or suspensions containing an initial amount of a test compound in modified Tyrode solution ("test solutions/suspensions") were then separately substituted for the tissue bath. Each test solution/suspension was then kept in constant contact with the ileum tissue, except for brief periods to drain the bath in preparation for rinsing with fresh test solution/suspension. Different doses of prostaglandin E2 were again injected into the test solutions/suspensions.
A second prostaglandin E2 dose response curve was then generated for PGE2 in the presence of a test compound.
A dose ratio of EC50 doses (that dose of a compound or drug which is necessary to elicit a 50% maximal biological response and, thus, which is necessary to elicit a 50% reduction in the contractions of the guinea pig ileum segments in this assay) was then calculated from the results of each test in a manner known by those of skill in the art. […] Duplicate tests were conducted on each concentration of test compound.
If the initial concentration of a test compound was determined to be "active," then varying concentrations of the test compound were then assayed. As is shown in Table I below, all test compounds analyzed in this assay were determined to be "active" as prostaglandin E2 antagonists at the initial concentration.
The pA2 value (a statistical constant which is a common measure of expressing the potency of a particular drug as a competitive antagonist) was then calculated for each test compound by schild plot calculations, as described by H. O. Schild, "pA, A New Scale for the Measurement of Drug Antagonism," Br. J. Pharmacol, 2, 189 (1947), according to the following mathematical formula: […]
to quantitate the effectiveness of the test compounds as prostaglandin E2 antagonists.
The compounds of the present invention which were tested in this assay, and for which results are presented in Table I, correspond to the particular examples specified in Table I.

In test [3] the test system is isolated smooth muscle preparations. The conditions noted are these: cited from earlier work.
Test [4] deals with micturition of urethane-anesthetized rats. The note with it: cited from earlier work.
Setting [5] is: po, mouse, intragastric, read-out: PBQ writhing assay ED50, I.G.
[6] abbreviates: Mus musculus, po, read-out: PBQ writhing assay ED50, I.G.

As for `O=C(CP(=O)(O)O)NNC(=O)N1Cc2ccccc2Oc2ccc(Cl)cc21` [Example 28, 8-chlorodibenz[b,f][1,4]oxazepine-10(11H)-carboxylic acid, 2-(phosphonoacetyl)hydrazide], the “rank order of potency in the Writhing Assay” value (shortened to “rank order of potency”) in test [1] is recorded as “Example 20>Example 27>Example 12>Example 11>Example 28”. For the same molecule, in test [1] (setting [5]), the ED50 was 11.2 mg/kg.

Turning to `CCOP(=O)(CC(=O)NNC(=O)N1Cc2ccccc2Oc2ccc(Cl)cc21)OCC` [Example 20, 8-chlorodibenz[b,f][1,4]oxazepine-10(11H)-carboxylic acid, 2-[(diethoxyphosphinyl)acetyl]hydrazide], in test [2], the Kb was 794 nM and the “PGE antagonism in guinea pig ileum, activity” value (“PGE antagonism” for short) was “Active”. For the same molecule, the ED50 in test [1] (setting [6]) is 8.2 mg/kg. Further, the ED50 in test [1] (Mus musculus, sc, read-out: PBQ writhing assay ED50, S.C.) is 7.1 mg/kg. In addition, the “rank order of potency” value in test [1] is “Example 20>Example 27>Example 12>Example 11>Example 28; also recorded: the most potent compound of the invention tested”.

For `O=C(CCNC(=O)Nc1ccc(C(F)(F)F)cc1)NNC(=O)N1Cc2ccccc2Oc2ccc(Cl)cc21` [Example 10, 8-chlorodibenz[b,f][1,4]oxazepine-10(11H)-carboxylic acid, 2-[1-oxo-3-[[[[(4-trifluoromethyl)phenyl]amino]carbonyl]amino]propyl]hydrazide], in test [2], the Kb is 100 nM and the “PGE antagonism” value is recorded as “Active”.

For `CC(C)(C)OC(=O)NCCC(=O)NNC(=O)N1Cc2ccccc2Oc2ccc(Cl)cc21` [Example 7, 8-chlorodibenz[b,f][1,4]oxazepine-10(11H)-carboxylic acid, 2-[3-[[(1,1-dimethylethoxy)carbonyl]amino]-1-oxopropyl]hydrazide], in test [2], the Kb was 2510 nM and the “PGE antagonism” value was “Active”.

Regarding `O=C(Cc1cccs1)NCCC(=O)NNC(=O)N1Cc2ccccc2Oc2ccc(Cl)cc21` [Example 5, 8-chlorodibenz[b,f][1,4]oxazepine-10(11H)-carboxylic acid, 2-[1-oxo-3-[(2-thienylacetyl)amino]propyl]hydrazide], in test [2], the Kb is 79.4 nM and the “PGE antagonism” value was “Active”. In test [2] (compared with literature prostaglandin E2 antagonists), the “effectiveness as prostaglandin E2 antagonist relative to prostaglandin antagonists reported in the literature” value was “more than three to four times more effective”.

In the case of `CCOP(=O)(O)CC(=O)NNC(=O)N1Cc2ccccc2Oc2ccc(Cl)cc21` [Example 27, 8-chlorodibenz[b,f][1,4]oxazepine-10(11H)-carboxylic acid, 2-[(ethoxyhydroxyphosphinyl)acetyl]hydrazide], the ED50 in test [1] (setting [6]) stood at 8.3 mg/kg. Moreover, the “rank order of potency” value in test [1] is recorded as “Example 20>Example 27>Example 12>Example 11>Example 28”.

In the case of `CS(=O)(=O)NCCC(=O)NNC(=O)N1Cc2ccccc2Oc2ccc(Cl)cc21` [Example 11, 8-chlorodibenz[b,f][1,4]oxazepine-10(11H)-carboxylic acid, 2-[3-[(methylsulfonyl)amino]-1-oxopropyl]hydrazide], the Kb in test [2] is 794 nM. For the same molecule, the “PGE antagonism” value in test [2] is “Active”. In addition, the “rank order of potency” value in test [1] is listed as “Example 20>Example 27>Example 12>Example 11>Example 28”. In addition, the ED50 came to 9.7 mg/kg in test [1] (setting [5]) and 3 mg/kg in test [1] (sc, mouse, subcutaneous, read-out: PBQ writhing assay ED50, S.C.).

As to `CC(=O)NNC(=O)N1Cc2ccccc2Oc2ccc(Cl)cc21` [SC-19220], the “inhibition of stimulant actions of prostaglandins” value in test [3] was “inhibit the stimulant actions of prostaglandins on isolated smooth muscle preparations”. For the same molecule, in test [4], the bladder capacity entry is listed as “increased the bladder capacity” and the “voiding efficiency of micturition” value is recorded as “reduced the voiding efficiency of micturition”.

Turning to `O=C(Cc1ccccc1)NNC(=O)N1Cc2ccccc2Oc2ccc(Cl)cc21` [SC-18637], the “inhibition of stimulant actions of prostaglandins” value in test [3] is reported as “inhibit the stimulant actions of prostaglandins on isolated smooth muscle preparations”.

In the case of `CNC(=O)NCCC(=O)NNC(=O)N1Cc2ccccc2Oc2ccc(Cl)cc21` [Example 12, 8-chlorodibenz[b,f][1,4]oxazepine-10(11H)-carboxylic acid, 2-[3-[[(methylamino)carbonyl]amino]-1-oxopropyl]hydrazide], the “rank order of potency” value in test [1] is on record as “Example 20>Example 27>Example 12>Example 11>Example 28”. Besides, the ED50 in test [1] (setting [5]) stood at 8.4 mg/kg.

On to `O=C(CCNS(=O)(=O)c1ccccc1)NNC(=O)N1Cc2ccccc2Oc2ccc(Cl)cc21` [Example 24, 8-chlorodibenz[b,f][1,4]oxazepine-10(11H)-carboxylic acid, 2-[1-oxo-3-[(phenylsulfonyl)amino]propyl]hydrazide], for which, in test [2], the Kb is 2000 nM and the “PGE antagonism” value is recorded as “Active”.

The values are drawn from US5393747A, “Substituted dibenzoxazepine compounds for the treatment of convulsions, ischemia and other diseases responsive to prostaglandin-E2 antagonists” (G. D. Searle & Co., priority 1993, dated 1995).
